The record followed here is PubChem BioAssay AID1996.

≈ marks a conversion by molar mass, not a printed value.

For the data set the following is noted: buffer; pH 7.4; 200.0 µM.
The kinetic solubility is solubility judged after dilution from a stock solution rather than from solid. In turn, `COc1ccccc1C(=O)NCC(=O)NCCc1ccc(Cl)cc1` showed a solubility (kinetic) of 38.8 µg/mL (≈ 112 µM).
Turning to `Cc1ccc(OCC(=O)OCC(=O)NC2CCCC2)cc1C`, the kinetic solubility was found to be 20 µg/mL (≈ 65.5 µM).
Take `Cc1cccnc1NC(=O)C1COc2ccccc2O1` (stereo not given): the solubility (kinetic) stood at 40.1 µg/mL (≈ 148 µM).
The result for `CCOC(=O)NC(=O)CSc1nc2ccc([N+](=O)[O-])cc2[nH]1` reads 22 µg/mL (≈ 67.8 µM); that for `CSC1=C(C#N)C(c2sccc2C)CC(=O)N1` (stereo not given), > 39.7 µg/mL.
For the compound `CC1CCCCN1C(=O)Cn1cnc2cc([N+](=O)[O-])ccc2c1=O` (stereo not given), the kinetic solubility is > 49.6 µg/mL.
Take `Cc1ccccc1N1CCN(CC(=O)Nc2nccs2)CC1`: the kinetic solubility is 44.2 µg/mL (≈ 140 µM).
For the compound `CC(=O)N1CCN(C(=O)c2ccc(C)c(S(=O)(=O)N3CCCCC3)c2)CC1`, the solubility (kinetic) is > 59 µg/mL.
The result for `CC12CS(=O)(=O)CC1SC(=S)N2Cc1ccccc1` (stereo not given) reads 44.2 µg/mL (≈ 141 µM).
The result for `CCOC(=O)N1CCN(S(=O)(=O)c2ccc3[nH]c(=O)oc3c2)CC1` reads 45.6 µg/mL (≈ 128 µM).
As for `CCN(C(=O)CSc1nc(C)nc2sc3c(c12)CCC3)C1CCS(=O)(=O)C1` (stereo not given), the solubility (kinetic) was 5.4 µg/mL (≈ 12.7 µM).
`Cc1ccc(S(=O)(=O)NCC(=O)Nc2cccc([N+](=O)[O-])c2)cc1` returned a kinetic solubility of 22.7 µg/mL (≈ 65 µM).
Take `COc1cccc(C(C)NC(=O)Nc2cc(Cl)ccc2OC)c1` (stereo not given): the solubility (kinetic) is < 0.4 µg/mL.
As for `Cc1cc(=O)[nH]c(SCC(=O)c2ccc(F)c(C)c2)n1`, the kinetic solubility is > 43.8 µg/mL.
Take `O=C(NC1CC2CCC1C2)c1ccco1` (stereo not given): the solubility (kinetic) was 26.3 µg/mL (≈ 128 µM).
For the compound `Nc1nc(SCC(=O)N2CCOCC2)[nH]c(=O)c1-c1ccccc1`, the kinetic solubility is > 52 µg/mL.
The result for `Cc1ccc(C(=O)Nc2ccc3[nH]c(=O)[nH]c3c2)c(C)c1` reads 3.9 µg/mL (≈ 13.9 µM).
For the compound `CN(CC(=O)Nc1c(Cl)cccc1Cl)CC(=O)N(C)C1(C#N)CCCCC1`, the kinetic solubility was > 61.7 µg/mL.
The figure for `O=[N+]([O-])/C(C(=C(Cl)Cl)N1CCOCC1)=C1\NCCO1` is > 46.5 µg/mL; for `S=C(Nc1ccccc1)Nc1ccccc1-n1cccc1` it is 34.2 µg/mL (≈ 117 µM).
For `Nc1cc(S(=O)(=O)c2ccc(O)c(N)c2)ccc1O`, the solubility (kinetic) is > 42 µg/mL.
On to `O=C(C1CC(=O)N(c2ccc(F)cc2)C1)N1CCOCC1` (stereo not given), for which the solubility (kinetic) was found to be 41.5 µg/mL (≈ 142 µM).
Compound `O=[N+]([O-])c1cccc(S(=O)(=O)N2CCCCC2)c1` gave a solubility (kinetic) of 37.5 µg/mL (≈ 139 µM). This solubility kinetic and that of the compound before are within 1.5-fold of each other.
Compound `O=C(O)c1ccc(S(=O)(=O)N2CCOCC2)o1` displayed a kinetic solubility of 33.9 µg/mL (≈ 130 µM).
Turning to `COc1cc(CN2CCCCCC2)cc(OC)c1`, the solubility (kinetic) stood at 30.6 µg/mL (≈ 123 µM). This solubility kinetic and that of the compound before are within 1.5-fold of each other.
As to `Cn1ccnc1Sc1ccc(C=O)cc1[N+](=O)[O-]`, the kinetic solubility was > 39.5 µg/mL.
As for `CCOc1ccc(C(=O)NCC(=O)N2CCN(Cc3ccccc3)CC2)cc1`, the solubility (kinetic) is > 57.2 µg/mL.
The compound `CCOc1nc(Nc2ccc(Cl)cc2)nc(OCC)n1` yielded a solubility (kinetic) of 3.5 µg/mL (≈ 11.9 µM).
`CSCCC1NC(=O)N(CC(=O)Nc2cccc(S(=O)(=O)N3CCCCCC3)c2)C1=O` (stereo not given) gave a solubility (kinetic) of 52.3 µg/mL (≈ 112 µM).
In turn, `Cc1cc(/C(N)=N/OC(=O)c2ccc(Cl)cc2)no1` had a kinetic solubility of 1.6 µg/mL (≈ 5.72 µM).
With `CCCCCCCc1c(O)nc(SCC(=O)O)[nH]c1=O`, the kinetic solubility worked out at 43.9 µg/mL (≈ 146 µM).
On to `CC1CC(C)CN(C(C)C(=O)Nc2cc(S(=O)(=O)N3CCCCC3)ccc2Cl)C1` (stereo not given), for which the solubility (kinetic) is < 0.3 µg/mL.
`O=C1CCN(Cc2ccccc2)C(=O)N1c1ccccc1`: the solubility (kinetic) was > 42 µg/mL.
The figure for `O=C(Cc1ccc(Cl)c(Cl)c1)N1CCOCC1` is > 41.1 µg/mL; for `CC1(C)Cc2nc3sc(C(=O)NCCCO)c(N)c3cc2CO1` it is > 50.3 µg/mL; for `CC(=O)c1ccc(C(=O)NC2CCCN(Cc3ccccc3F)C2)cc1` (stereo not given) it is > 53.2 µg/mL.
The figure for `Cc1nc2ccccn2c1-c1ccnc(SCc2ccc(Cl)cc2)n1` is < 0.2 µg/mL.
Take `COc1ccc(C(=O)C[n+]2ccc(N(C)C)cc2)cc1.[Cl-]`: the kinetic solubility was > 46 µg/mL.
Compound `CC(C)[C@H](NC(N)=O)C(=O)NCCc1ccc(Cl)cc1Cl` showed a kinetic solubility of 48.2 µg/mL (≈ 145 µM).
In the case of `Cc1ccc(N2CC(C(=O)N3CCOCC3)CC2=O)cc1C` (stereo not given), the kinetic solubility is 34.3 µg/mL (≈ 113 µM). This solubility kinetic and that of the compound before are within 1.5-fold of each other.
The figure for `COc1ccc(/C=C/C(=O)O)cc1S(=O)(=O)N1CCCC1` is > 46.7 µg/mL.
With `CSc1ncccc1C(=O)NCC1CCCCC1`, the solubility (kinetic) worked out at 38.4 µg/mL (≈ 145 µM).
`Cc1ncc(S(=O)(=O)C(C)(C)C)c(N)n1` came in with a kinetic solubility of 27.2 µg/mL (≈ 119 µM).
Turning to `O=C(NC(=S)Nc1ccccc1[N+](=O)[O-])c1ccccc1`, the solubility (kinetic) amounted to 4.1 µg/mL (≈ 13.6 µM).
Turning to `CCOc1ccccc1NC(=O)N1CCCN(c2ncccc2C#N)CC1`, the kinetic solubility came out at 45.7 µg/mL (≈ 125 µM).
`O=C1OC(c2ccc(Br)cc2)=N/C1=C\c1ccco1`: the solubility (kinetic) was 2.4 µg/mL (≈ 7.54 µM).
`CC(=O)C1=C(O)C(=O)N(c2ccc(O)cc2)C1c1ccccc1F` (stereo not given): the kinetic solubility is > 49.1 µg/mL.
On to `N#CC(=C=[N-])/C=C(\C(=O)c1ccccc1)[n+]1ccccc1`, for which the solubility (kinetic) is > 41 µg/mL.
Take `O=C(Cc1ccccc1)NCCc1cnc[nH]1`: the kinetic solubility is > 34.4 µg/mL.
The figure for `Cc1cccc(NC(=O)c2cc(=O)c3ccccc3o2)c1` is 1.9 µg/mL (≈ 6.8 µM); for `Cc1cccc(N2C(=O)CC(Sc3nccc(C)n3)C2=O)c1` (stereo not given) it is > 47 µg/mL; for `Cc1cc2cc(OCc3ccccc3)ccc2n1C` it is < 0.5 µg/mL.
`CCCc1cc(=O)oc2cc(OCC(=O)N3CCOCC3)c(Cl)cc12` returned a kinetic solubility of 3.8 µg/mL (≈ 10.4 µM).
For `O=C(NCC(F)(F)F)c1ccc(S(=O)(=O)Nc2ccccc2N2CCCC2)cc1`, the solubility (kinetic) worked out at 15.4 µg/mL (≈ 36 µM).
The figure for `CN1CCN(c2nc3ccccc3nc2NS(=O)(=O)c2ccc(Br)cc2)CC1` is > 69.4 µg/mL; for `CC(C)N1CCN(C2CSCCSC2)CC1CCO` (stereo not given) it is 42.7 µg/mL (≈ 140 µM).
Regarding `Cc1ccc(OCc2nc(C#N)c(N3CCCCC3)o2)cc1`, the solubility (kinetic) came out at 4.9 µg/mL (≈ 16.5 µM).
`Cc1ccc(CSCC(=O)NCCc2ccccc2)cc1` registered a solubility (kinetic) of 40.9 µg/mL (≈ 137 µM).
The result for `Cc1ccc(N2CCN(C(=O)NC3CCCCC3)CC2)c(C)c1` reads 1.6 µg/mL (≈ 5.07 µM); that for `Fc1ccc(N=Cc2ccc[nH]2)cc1`, 11 µg/mL (≈ 58.4 µM); that for `CCc1ccc(OCC(=O)N2CCc3ccccc32)cc1`, 0.9 µg/mL (≈ 3.2 µM).
For `Cc1cccc(C)c1NC(=O)C1C2C=CC(C2)C1C(=O)O` (stereo not given), the kinetic solubility is 39.7 µg/mL (≈ 139 µM). Against the preceding compound, the solubility kinetic is about 44-fold higher.
On to `Cc1ccccc1N1CCN(Cc2ccc([N+](=O)[O-])o2)CC1`, for which the solubility (kinetic) is 34.3 µg/mL (≈ 114 µM).
In the case of `CC(=O)Nc1ccc2nc(-c3cccn3C)[nH]c2c1`, the solubility (kinetic) stood at 33.4 µg/mL (≈ 131 µM).
With `CCC(=O)c1ccc(OC(=O)N2CCOCC2)cc1`, the kinetic solubility is > 39.5 µg/mL.
The result for `CC(=O)NC1(NC(C)=O)CCN(C)CC1` reads > 32 µg/mL; that for `COc1ccc(/C(N)=N/OC(=O)C2CCCCC2)cc1`, 20.6 µg/mL (≈ 74.5 µM); that for `O=C(Nc1ccccc1)O/N=C1/CCCc2occc21`, 16.6 µg/mL (≈ 61.4 µM).
In turn, `CC1Cc2ccccc2N1CC(=O)NC(=O)NC1CCCCC1` (stereo not given) showed a solubility (kinetic) of 24.6 µg/mL (≈ 78 µM).
For the compound `O=C(Nc1cccc(Cl)c1)C1COc2ccccc2O1` (stereo not given), the solubility (kinetic) was determined as 3.1 µg/mL (≈ 10.7 µM).
The figure for `Cl.NCc1cc2c3c(c1)CCCN3CCC2` is > 41.3 µg/mL.
Consider `COc1ccc(NC(=O)CCCC(=O)c2ccccc2)cc1`, for which the solubility (kinetic) stood at 7.1 µg/mL (≈ 23.9 µM).
Consider `CN1CCN(c2ccc(NC(=O)c3ccc(Cl)cc3)cn2)CC1`, for which the kinetic solubility was > 49.6 µg/mL.
`CCn1cc(C(=O)N2CCOCC2)c2ccccc21`: the solubility (kinetic) is > 38.7 µg/mL.
With `Cc1ccc(C(=O)N/C(=C\c2ccco2)C(=O)N2CCCCC2)cc1`, the solubility (kinetic) is > 50.8 µg/mL.
As to `O=C(CN1CCN(c2ccccc2)CC1)NCc1ccc(F)cc1`, the solubility (kinetic) is > 49.1 µg/mL.
For `CCOc1nc(-c2ccccc2Cl)nc2ccccc12`, the kinetic solubility came to 1.4 µg/mL (≈ 4.92 µM).
Compound `C(#CCN1CCCCC1)COCc1ccccc1.Cl` showed a kinetic solubility of 39 µg/mL. This solubility kinetic lies about 28-fold higher than the previous one.
Consider `CC1CCCC(C)N1C(=O)COC(=O)CNC(=O)c1ccccc1F` (stereo not given), for which the solubility (kinetic) was > 52.6 µg/mL.
For `OC(CCNCCc1c[nH]c2ccccc12)C(F)(F)F` (stereo not given), the solubility (kinetic) turned out to be 35.8 µg/mL (≈ 125 µM).
The figure for `Oc1ccc2ccccc2c1C=NC1CCCCC1` is > 38 µg/mL; for `COc1ccc(OC)c(C(O)c2nc3ccccc3n2C)c1` (stereo not given) it is > 44.8 µg/mL.
Compound `CC(=O)N1CCc2ccc(S(=O)(=O)Nc3ccccc3Cl)cc21` displayed a solubility (kinetic) of 39.2 µg/mL (≈ 112 µM).
Regarding `Cc1cc(Oc2ncccc2[N+](=O)[O-])c2cc(Cl)ccc2n1`, the solubility (kinetic) was < 0.2 µg/mL.
For `CCOC(=O)C1=C(COC(=O)COc2ccccc2C=O)NC(=O)NC1C` (stereo not given), the kinetic solubility was > 56.5 µg/mL.
Turning to `Cc1nnc(NN2CCOCC2)[nH]c1=O`, the solubility (kinetic) was > 31.7 µg/mL.
`Cc1ccc2c(CN(C)Cc3cccc(F)c3)cc(=O)oc2c1C` came in with a kinetic solubility of 2.9 µg/mL (≈ 8.91 µM).
`Clc1ccccc1C(c1ccccc1)(c1ccccc1)n1ccnc1` had a solubility (kinetic) of 3.7 µg/mL (≈ 10.7 µM).
The result for `Cc1nc(-c2cc(-c3nc(-c4ccc(C(C)(C)C)cc4)no3)no2)cs1` reads < 0.2 µg/mL; that for `CCCCNC(=S)Nc1ccc(F)cc1`, 30.1 µg/mL (≈ 133 µM).
The result for `CC1CC(C)CN(c2cc(N(C)CCO)c([N+](=O)[O-])c3nonc23)C1` (stereo not given) reads 52.1 µg/mL (≈ 149 µM).
Turning to `CCOc1ccc(OCCCC(=O)NCCOc2ccccc2OC)cc1`, the solubility (kinetic) was > 56 µg/mL.
The figure for `CC(C(=O)C12CC3CC(CC(C3)C1)C2)N1CCOCC1.Cl` (stereo not given) is > 47.1 µg/mL; for `NC(N)=O` it is > 9 µg/mL.
In turn, `CN(C(=O)CSc1nc2scc(-c3ccccc3)c2c(=O)[nH]1)c1ccccc1` yielded a solubility (kinetic) of 11.2 µg/mL (≈ 27.5 µM).
The figure for `Cc1ccc(C(=O)NC2(O)C(=O)c3ccccc3C2=O)cc1C` is > 46.4 µg/mL.
On to `COc1ccc(C(O)(CCN2CCOCC2)c2ccccc2)cc1` (stereo not given), for which the kinetic solubility was determined as 41.1 µg/mL (≈ 126 µM).
Consider `Cc1cccc(C)c1NC(=O)C1CC2CCC1C2` (stereo not given), for which the kinetic solubility was 12.6 µg/mL (≈ 51.8 µM).
Regarding `O=C(COC(=O)c1ccc([N+](=O)[O-])o1)NC1CCCCC1`, the solubility (kinetic) was > 44.4 µg/mL.
The figure for `Nc1ccc(Oc2ccc(F)cc2)nc1` is 27.6 µg/mL (≈ 135 µM); for `Cc1nn(CC(=O)N2CCC(C)CC2)c(=O)c2cccn12` it is > 43.3 µg/mL.
Compound `O=C(NCc1ccco1)C1CC(c2ccc(F)cc2)=NO1` (stereo not given) gave a solubility (kinetic) of 8 µg/mL (≈ 27.8 µM).
The result for `Oc1cccc(N2Cc3ccccc3C2)c1` reads 13 µg/mL (≈ 61.5 µM); that for `Cc1ccc(NC(=O)CCc2c[nH]c3ccccc23)nc1`, > 41.9 µg/mL; that for `CN(Cc1ccccc1)c1nc(N)nc(Cl)c1C=O`, 26.4 µg/mL (≈ 95.4 µM).
